Data: patent publication US20250145642A1, “BICYCLIC HETEROARENES AND METHODS OF THEIR USE” (Kineta, Inc., priority 2021, published 2025)

molecular target: full-length human PIKFYVE (N-terminal GST-fusion) (Homo sapiens (Human), UniProt Q9Y2I7, L932S/Q1183K/Q995L/S1033A/S696N/T998S); assay: PIKfyve biochemical assay (ADP-Glo Kinase assay, Carna Biosciences); settings: ADP-Glo, full-length human GST-PIKFYVE, 10 μM to 3 nM; read-out: hPIKfyve IC50
Source text: (§1) PIKfyve Biochemical Assay. The biochemical PIKfyve inhibition assays were run by Carna Biosciences according to proprietary methodology based on the Promega ADP-Glo™ Kinase assay. A full-length human PIKFYVE [1-2098(end) amino acids and S696N, L932S, Q995L, T998S, S1033A and Q1183K of the protein having the sequence set forth in NCBI Reference Sequence No. NP_055855.2] was expressed as N-terminal GST-fusion protein (265 kDa) using baculovirus expression system. GST-PIKFYVE was purified by using glutathione sepharose chromatography and used in an ADP-Glo™ Kinase assay (Promega). Reactions were set up by adding the test compound solution, substrate solution, ATP solution and kinase solution, each at 4× final concentrations. Reactions were prepared with assay buffer (50 mM MOPS, 1 mM DTT, pH7.2), mixed, and incubated in black 384 well polystyrene plates for 1 hour at room temperature. ADP-Glo™ reagent was then added for 40 minutes, followed by kinase detection reagent for an additional 40 minutes. The kinase activity was evaluated by detecting relative light units on a luminescence plate reader. Samples were run in duplicate from 10 μM to 3 nM. […] IC50 values were calculated from concentration vs % inhibition curves by fitting to a four-parameter logistic curve.
as §1, with “The” for “PIKfyve Biochemical Assay. The”, “accession number” for “the protein having the sequence set forth in NCBI Reference Sequence No.”, “curve. […]” for “curve.”

Chain of full-length human PIKFYVE (N-terminal GST-fusion) (Q9Y2I7 whole entry S696N/L932S/Q995L/T998S/S1033A/Q1183K, the tested form may be a part): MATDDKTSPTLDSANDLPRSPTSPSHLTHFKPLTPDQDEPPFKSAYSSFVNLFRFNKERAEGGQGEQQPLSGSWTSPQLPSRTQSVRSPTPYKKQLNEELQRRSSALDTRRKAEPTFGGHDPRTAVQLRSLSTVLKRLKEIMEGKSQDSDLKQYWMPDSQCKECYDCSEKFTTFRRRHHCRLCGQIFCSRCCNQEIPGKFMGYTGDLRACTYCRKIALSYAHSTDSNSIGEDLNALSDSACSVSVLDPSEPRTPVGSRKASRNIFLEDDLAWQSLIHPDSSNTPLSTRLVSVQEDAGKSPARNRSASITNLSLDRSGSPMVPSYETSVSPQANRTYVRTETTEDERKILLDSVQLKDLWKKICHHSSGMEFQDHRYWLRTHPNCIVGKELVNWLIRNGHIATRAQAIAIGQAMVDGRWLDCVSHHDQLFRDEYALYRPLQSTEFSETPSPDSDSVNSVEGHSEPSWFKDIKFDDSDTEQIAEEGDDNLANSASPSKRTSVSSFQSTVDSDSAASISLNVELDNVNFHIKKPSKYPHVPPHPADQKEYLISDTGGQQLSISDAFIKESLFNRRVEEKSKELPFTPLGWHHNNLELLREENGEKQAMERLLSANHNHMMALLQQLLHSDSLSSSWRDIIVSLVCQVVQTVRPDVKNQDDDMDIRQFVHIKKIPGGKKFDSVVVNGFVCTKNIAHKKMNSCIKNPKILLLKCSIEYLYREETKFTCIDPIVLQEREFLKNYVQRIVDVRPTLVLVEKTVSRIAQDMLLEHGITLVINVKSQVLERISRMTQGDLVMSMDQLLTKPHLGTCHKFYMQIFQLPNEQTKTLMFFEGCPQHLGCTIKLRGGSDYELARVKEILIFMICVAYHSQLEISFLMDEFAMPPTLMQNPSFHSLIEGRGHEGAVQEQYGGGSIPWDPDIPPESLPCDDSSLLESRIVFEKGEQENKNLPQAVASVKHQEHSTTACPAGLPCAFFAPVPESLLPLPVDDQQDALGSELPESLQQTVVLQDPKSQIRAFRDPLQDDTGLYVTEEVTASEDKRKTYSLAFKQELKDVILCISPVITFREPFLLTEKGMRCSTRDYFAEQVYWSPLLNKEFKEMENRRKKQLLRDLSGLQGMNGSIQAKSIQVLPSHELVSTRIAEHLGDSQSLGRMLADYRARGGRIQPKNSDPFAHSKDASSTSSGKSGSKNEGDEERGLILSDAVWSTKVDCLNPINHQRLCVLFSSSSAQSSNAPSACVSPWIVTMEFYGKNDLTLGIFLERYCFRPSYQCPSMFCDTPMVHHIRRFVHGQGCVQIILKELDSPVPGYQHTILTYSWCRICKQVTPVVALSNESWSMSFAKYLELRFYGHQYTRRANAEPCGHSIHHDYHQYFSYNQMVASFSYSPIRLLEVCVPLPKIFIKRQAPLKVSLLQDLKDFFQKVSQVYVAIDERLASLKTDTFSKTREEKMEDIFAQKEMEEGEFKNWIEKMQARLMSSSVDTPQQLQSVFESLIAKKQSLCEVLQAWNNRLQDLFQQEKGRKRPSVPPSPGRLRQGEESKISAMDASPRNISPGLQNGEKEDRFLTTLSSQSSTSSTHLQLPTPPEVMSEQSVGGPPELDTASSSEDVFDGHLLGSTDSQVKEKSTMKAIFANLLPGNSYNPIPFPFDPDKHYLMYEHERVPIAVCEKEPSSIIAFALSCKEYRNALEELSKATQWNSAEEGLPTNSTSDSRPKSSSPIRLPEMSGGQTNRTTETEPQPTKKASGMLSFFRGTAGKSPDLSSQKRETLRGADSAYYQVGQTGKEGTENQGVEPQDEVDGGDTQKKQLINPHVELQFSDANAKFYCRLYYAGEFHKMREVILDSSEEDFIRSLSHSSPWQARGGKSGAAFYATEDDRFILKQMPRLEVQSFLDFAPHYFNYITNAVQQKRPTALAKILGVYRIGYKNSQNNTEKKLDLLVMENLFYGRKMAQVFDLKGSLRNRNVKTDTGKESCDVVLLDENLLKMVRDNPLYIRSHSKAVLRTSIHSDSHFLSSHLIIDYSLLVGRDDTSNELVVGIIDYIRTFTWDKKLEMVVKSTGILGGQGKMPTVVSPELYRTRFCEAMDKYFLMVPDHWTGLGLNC

`CN1CCCC(COc2nc(N3CCOCC3)nc3c2CCN3c2ccnnc2)C1` (stereo not drawn) [Compound 17, 4-(4-((1-methylpiperidin-3-yl)methoxy)-7-(pyridazin-4-yl)-6,7-dihydro-5H-pyrrolo[2,3-d]pyrimidin-2-yl)morpholine] and `CCN1CCCC(COc2nc(N3CCOCC3)nc3c2CCN3c2cccnc2)C1` (stereo not drawn) [Compound 10, 4-(4-((1-ethylpiperidin-3-yl)methoxy)-7-(pyridin-3-yl)-6,7-dihydro-5H-pyrrolo[2,3-d]pyrimidin-2-yl)morpholine] fall in the same range of IC50: 100 to 1000 nM for the first, 100 to 1000 nM for the second.

`c1cncc(N2CCc3c(OCC4CNC4)nc(N4CCOCC4)nc32)c1` [Compound 38, 4-(4-(azetidin-3-ylmethoxy)-7-(pyridin-3-yl)-6,7-dihydro-5H-pyrrolo[2,3-d]pyrimidin-2-yl)morpholine] and `c1cncc(N2CCc3c(OCC4CCCO4)nc(N4CCOCC4)nc32)c1` (stereo not drawn) [Compound 23, 4-(7-(pyridin-3-yl)-4-((tetrahydrofuran-2-yl)methoxy)-6,7-dihydro-6H-pyrrolo[2,3-d]pyrimidin-2-yl)morpholine] fall in the same range of IC50: 100 to 1000 nM for the first, 100 to 1000 nM for the second.

`c1ccc(-c2ccn(-c3nc(N4CCOCC4)nc4c3CCN4c3ccncc3)n2)cc1` [Compound 84, 4-(4-(3-phenyl-1H-pyrazol-1-yl)-7-(pyridin-4-yl)-6,7-dihydro-6H-pyrrolo[2,3-d]pyrimidin-2-yl)morpholine] and `Cc1cccc(-c2ccn(-c3nc(N4CCOCC4)nc4c3CCN4c3cccnc3)n2)c1` [Compound 83, 4-(7-(pyridin-3-yl)-4-(3-(m-tolyl)-1H-pyrazol-1-yl)-6,7-dihydro-6H-pyrrolo[2,3-d]pyrimidin-2-yl)morpholine] fall in the same range of IC50: 10 to 100 nM for the first, 10 to 100 nM for the second.

First: Cc1nc(N2CCOCC2)nc2c1CCN2c1ccccc1 [Compound 45, 4-(4-methyl-7-phenyl-6,7-dihydro-5H-pyrrolo[2,3-d]pyrimidin-2-yl)morpholine]
Second: COc1nc(N2CCOCC2)nc2c1CCN2c1ccccc1 [Compound 48, 4-(4-methoxy-7-phenyl-6,7-dihydro-5H-pyrrolo[2,3-d]pyrimidin-2-yl)morpholine]
The IC50 of the first is higher: 100 to 1000 nM for the first, 10 to 100 nM for the second. The second is the more potent here.

First: c1ccc(N2CCc3c(OCc4cccnn4)nc(N4CCOCC4)nc32)cc1 [Compound 27, 4-(7-phenyl-4-(pyridazin-3-ylmethoxy)-6,7-dihydro-5H-pyrrolo[2,3-d]pyrimidin-2-yl)morpholine]
Second: Fc1cccc(N2CCc3c(OCc4cccnn4)nc(N4CCOCC4)nc32)c1 [Compound 8, 4-(7-(3-fluorophenyl)-4-(pyridazin-3-ylmethoxy)-6,7-dihydro-5H-pyrrolo[2,3-d]pyrimidin-2-yl)morpholine]
The IC50 of the first is lower: 10 to 100 nM for the first, 100 to 1000 nM for the second. The first is the more potent here.

First: O=C(c1ccccc1)N1CCc2c(Oc3cccnc3)nc(N3CCOCC3)nc21 [Compound 72, (2-morpholino-4-(pyridin-3-yloxy)-6H-pyrrolo[2,3-d]pyrimidin-7(6H)-yl)(phenyl)methanone]
Second: c1ccc(N2CCc3c(Nc4cccnc4)nc(N4CCOCC4)nc32)cc1 [Compound 77]
The IC50 of the first is higher: 1000 to 10000 nM for the first, 10 to 100 nM for the second.

`N#Cc1cccc(N2CCc3c(OCc4cccnc4)nc(N4CCOCC4)nc32)c1` [Compound 4, 3-(2-morpholino-4-(pyridin-3-ylmethoxy)-5H-pyrrolo[2,3-d]pyrimidin-7(6H)-yl)benzonitrile] and `c1cncc(COc2nc(N3CCOCC3)nc3c2CCN3c2cccnc2)c1` [Compound 32, 4-(7-(pyridin-3-yl)-4-(pyridin-3-ylmethoxy)-6,7-dihydro-5H-pyrrolo[2,3-d]pyrimidin-2-yl)morpholine] fall in the same range of IC50: 100 to 1000 nM for the first, 100 to 1000 nM for the second.

First: CN1CCC(c2nc(N3CCOCC3)nc3c2CCN3c2cccnc2)CC1 [Compound 109, 4-(4-(1-methylpiperidin-4-yl)-7-(pyridin-3-yl)-6,7-dihydro-5H-pyrrolo[2,3-d]pyrimidin-2-yl)morpholine]
Second: CC(=O)N1CCC(c2nc(N3CCOCC3)nc3c2CCN3c2ccccc2)C1 (stereo not drawn) [Compound 119, 1-(3-(2-morpholino-7-phenyl-6,7-dihydro-5H-pyrrolo[2,3-d]pyrimidin-4-yl)pyrrolidin-1-yl)ethanone]
The IC50 of the first is higher: 1000 to 10000 nM for the first, 10 to 100 nM for the second.

Compared with `Fc1cccc(N2CCc3c(-c4ccncc4)nc(N4CCOCC4)nc32)c1` [Compound 104, 4-(7-(3-fluorophenyl)-4-(pyridin-4-yl)-6,7-dihydro-5H-pyrroolo[2,3-d]pyrimidin-2-yl)morpholine], `c1cncc(N2CCc3c(-c4ccncc4)nc(N4CCOCC4)nc32)c1` [Compound 105, 4-(7-(pyridin-3-yl)-4-(pyridin-4-yl)-6,7-dihydro-5H-pyrrolo[2,3-d]pyrimidin-2-yl)morpholine] is higher in IC50: < 10 nM for the first, 10 to 100 nM for the second.

`c1ccc(-n2cnc3c(-c4ccncc4)nc(N4CCOCC4)nc32)cc1` [Compound 128, 4-(9-phenyl-6-(pyridin-4-yl)-9H-purin-2-yl)morpholine] and `c1ccc(N2CCc3c(-c4cncnc4)nc(N4CCOCC4)nc32)cc1` [Compound 100, 4-(7-phenyl-4-(pyrimidin-5-yl)-6,7-dihydro-5H-pyrrolo[2,3-d]pyrimidin-2-yl)morpholine] fall in the same range of IC50: 10 to 100 nM for the first, 10 to 100 nM for the second.

Compared with `N#Cc1nc(N2CCOCC2)nc2c1CCN2c1ccccc1` [Compound 47, 2-morpholino-7-phenyl-6,7-dihydro-5H-pyrrolo[2,3-d]pyrimidine-4-carbonitrile], `c1ccc(N2CCc3c(NC4COC4)nc(N4CCOCC4)nc32)cc1` [Compound 76, 2-morpholino-N-(oxetan-3-yl)-7-phenyl-6,7-dihydro-5H-pyrrolo[2,3-d]pyrimidin-4-amine] is higher in IC50: 100 to 1000 nM for the first, > 10000 nM for the second. The first is the more potent here.

First: O=C1COc2c(OCc3cccnc3)nc(N3CCOCC3)nc2N1c1ccccc1 [Compound 130, 2-morpholino-8-phenyl-4-(pyridin-3-ylmethoxy)-6H-pyrimido[5,4-b][1,4]oxazin-7(8H)-one]
Second: c1ccc(N2CCc3c(OCCc4ccccn4)nc(N4CCOCC4)nc32)cc1 [Compound 44, 4-(7-phenyl-4-(2-(pyridin-2-yl)ethoxy)-6,7-dihydro-5H-pyrrolo[2,3-d]pyrimidin-2-yl)morpholine]
The IC50 of the first is higher: 100 to 1000 nM for the first, 10 to 100 nM for the second.

`OCC(O)COc1nc(N2CCOCC2)nc2c1CCN2c1ccccc1` (stereo not drawn) [Compound 43, 3-((2-morpholino-7-phenyl-6,7-dihydro-6H-pyrrolo[2,3-d]pyrimidin-4-yl)oxy)propane-1,2-diol] and `c1ccc(N2CCc3c(OC4CCOC4)nc(N4CCOCC4)nc32)cc1` (stereo not drawn) [Compound 22, 4-(7-phenyl-4-((tetrahydrofuran-3-yl)oxy)-6,7-dihydro-5H-pyrrolo[2,3-d]pyrimidin-2-yl)morpholine] fall in the same range of IC50: 100 to 1000 nM for the first, 100 to 1000 nM for the second.

`CN1CCn2ncc(-c3c[nH]c4c(-c5ccncc5)nc(N5CCOCC5)nc34)c2C1` [Compound 146, 4-(7-(5-methyl-4,5,6,7-tetrahydropyrazolo[1,5-a]pyrazin-3-yl)-4-(pyridin-4-yl)-5H-pyrrolo[3,2-d]pyrimidin-2-yl)morpholine] and `OCCn1cc(-c2cccc(-n3cccn3)c2)c2nc(N3CCOCC3)nc(-c3ccncc3)c21` [Compound 149, 2-(7-(3-(1H-pyrazol-1-yl)phenyl)-2-morpholino-4-(pyridin-4-yl)-6H-pyrrolo[3,2-d]pyrimidin-5-yl)ethan-1-ol] fall in the same range of IC50: 100 to 1000 nM for the first, 100 to 1000 nM for the second.

`c1ccc(N2CCc3c(COCc4ccccn4)nc(N4CCOCC4)nc32)cc1` [Compound 62, 4-(7-phenyl-4-((pyridin-2-ylmethoxy)methyl)-6,7-dihydro-5H-pyrrolo[2,3-d]pyrimidin-2-yl)morpholine] and `c1cncc(-c2nc(N3CCOCC3)nc3c2CCN3c2cccnc2)c1` [Compound 106, 4-(4,7-di(pyridin-3-yl)-6,7-dihydro-5H-pyrrolo[2,3-d]pyrimidin-2-yl)morpholine] fall in the same range of IC50: 10 to 100 nM for the first, 10 to 100 nM for the second.

`c1cncc(N2CCc3c(-c4ccnnc4)nc(N4CCOCC4)nc32)c1` [Compound 97] and `c1cncc(-c2nc(N3CCOCC3)nc3c2CCN3c2ccc3c(c2)OCO3)c1` [Compound 102, 4-(7-(benzo[d][1,3]dioxol-5-yl)-4-(pyridin-3-yl)-6,7-dihydro-5H-pyrrolo[2,3-d]pyrimidin-2-yl)morpholine] fall in the same range of IC50: 10 to 100 nM for the first, 10 to 100 nM for the second.

With `c1cncc(-c2nc(N3CCOCC3)nc3c2CCN3c2ccc3c(c2)OCCO3)c1` [Compound 103, 4-(7-(2,3-dihydrobenzo[b][1,4]dioxin-6-yl)-4-(pyridin-3-yl)-6,7-dihydro-5H-pyrrolo[2,3-d]pyrimidin-2-yl)morpholine] the IC50 was < 10 nM.
